Key:
C. albicans = experiment: Protective activity against lethal infection in mice immunosuppressed with 5-fluorouracil; assay type: in vivo; conditions: 5-fluorouracil 25 mg/kg/day × 10 i.p. alone; 1 × 10^5 i.v.
Method: (§1) The effect was further extended against microbial infections in mice immunosuppressed by treatment of a cytostatic. Mice pretreated daily for 10 times with 5-fluorouracil (25 mg/kg/day, i.p.) were infected by either Ps. aeruginosa or C. albicans and the survivals were recorded on day 15.
(§2) C. albicans and Ps. aeruginosa were infected intravenously with 1 ×

Ps. aeruginosa = experiment: as above; assay type: in vivo; conditions: 5-fluorouracil 25 mg/kg/day × 10 i.p. alone; 4 × 10^4 i.v.
Method: as §1, §2

Lewis lung carcinoma [1] = experiment: Suppression of growth of Lewis lung carcinoma metastasized to lung after amputation and cyclophosphamide (Table 7); assay type: in vivo, mice; conditions: cyclophosphamide 50 mg/kg i.p. × 1 alone after amputation; day 27
Method: The major problem in the treatment of cancer patient after surgical elimination of tumor is the prevention of metastasis of the tumor.
(§3) Lewis lung carcinoma (1×10^6) was implanted into footpad and at day 10 the advanced tumor was excised by amputation of the leg with the tumor developed. Then the mice were treated with cyclophosphamide (50 mg/kg, i.p.) 24 hrs later and at day 27 the dry weight of the tumor metastasized to lung was measured.

Lewis lung carcinoma [2] = experiment: Survival of mice with Lewis lung carcinoma in combination with cyclophosphamide and surgery (Table 8); assay type: in vivo; conditions: cyclophosphamide 50 mg/kg i.p. × 1 alone
Method: as §3
On the other hand, the effect of the peptide on survival of the mice, which were amputated the advanced tumor and treated with cyclophosphamide, was examined. The experimental conditions were identical to the above experiment except that the advanced tumor was excised at day 12 and the mice were treated with cyclophosphamide at day 13.

Structure (SMILES)	Suppressive activity against lethal infection (survivals at day 15) (C. albicans)	Suppressive activity against lethal infection (survivals at day 15) (Ps. aeruginosa)	dry weight of the tumor metastasized (mg ± S.D.) (Lewis lung carcinoma [1]) [mg]	Survivals at day 100 (Lewis lung carcinoma [2])	Mean survival days (Lewis lung carcinoma [2]; days after tumor implantation) [days]
O=c1[nH]cc(F)c(=O)[nH]1 [5-fluorouracil]	5/35	2/7			
O=P1(N(CCCl)CCCl)NCCCO1 (centres unmarked) [Cyclophosphamide]			45.9 ± 30.6	2/12	32.6 ± 3.2

From patent publication US4452782A, “Pentadecapeptide” (Hoffmann-La Roche Inc., priority 1979, dated 1984)
